Like-named read-outs stand apart in the source and are kept apart here.
Assays:
[1] = target: T1, bradykinin 1 receptor (B1R) of the rat (Rattus norvegicus, UniProt P97583); assay: Functional investigation on the rat bradykinin 1 receptor (B1R), Ca2+ FLIPR assay in CHO K1 rB1R cells; type: cell-based
T1 construct: expressed in transfected cells; host or cells: CHO K1 cells
T1 sequence (P97583 1-337): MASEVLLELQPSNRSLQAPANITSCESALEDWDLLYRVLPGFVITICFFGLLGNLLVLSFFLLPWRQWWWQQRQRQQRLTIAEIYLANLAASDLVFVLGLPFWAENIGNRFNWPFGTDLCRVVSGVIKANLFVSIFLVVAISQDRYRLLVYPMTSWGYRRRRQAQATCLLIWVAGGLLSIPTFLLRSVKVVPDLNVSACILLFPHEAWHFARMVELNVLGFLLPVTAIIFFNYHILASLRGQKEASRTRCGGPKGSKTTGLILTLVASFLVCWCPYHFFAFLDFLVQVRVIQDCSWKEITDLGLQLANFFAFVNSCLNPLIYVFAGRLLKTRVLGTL
Text: (§1) Functional Investigation on the Human Bradykinin 1 Receptor (B1R)
(§2) The agonistic or antagonistic action of substances can be determined on the bradykinin 1 receptor (B1R) of the human species and rats with the following assay. In accordance with this assay, the Ca^2+ inflow through the channel is quantified with the aid of a Ca^2=-sensitive dyestuff (type Fluo-4, Molecular Probes Europe BV, Leiden, Holland) in a fluorescent imaging plate reader (FLIPR, Molecular Devices, Sunnyvale, USA).
(§3) Chinese hamster ovary cells (CHO K1 cells) transfected stably with the human B1R gene (hB1R cells) or the B1R gene of the rat (rB1R cells) are used. For functional studies, these cells are plated out on black 96-well plates with a clear base (BD Biosciences, Heidelberg, Germany or Greiner, Frickenhausen, Germany) in a density of 20,000-35,000 cells/well. The cells are left overnight at 37° C. and 5% CO2 in culture medium (hB1R cells: Nutrient Mixture Ham's F12, Gibco Invitrogen GmbH, Karlsruhe, Germany or DMEM, Sigma-Aldrich, Taufkirchen, Germany; rB1R cells: D-MEM/F12, Gibco Invitrogen GmbH, Karlsruhe, Germany) with 10 vol. % of FBS (foetal bovine serum, Gibco Invitrogen GmbH, Karlsruhe, Germany or PAN Biotech GmbH, Aidenbach, Germany).
(§4) On the following day, the cells are loaded for 60 min at 37° C. with 2.13 μM Fluo-4 (Molecular Probes Europe BV, Leiden, The Netherlands) in HBSS buffer (Hank's buffered saline solution, Gibco Invitrogen GmbH, Karlsruhe, Germany) with 2.5 mM probenecid (Sigma-Aldrich, Taufkirchen, Germany) and 10 mM HEPES (Sigma-Aldrich, Taufkirchen, Germany). The plates are then washed 2× with HBSS buffer, and HBSS buffer which additionally contains 0.1% of BSA (bovine serum albumin; Sigma-Aldrich, Taufkirchen, Germany), 5.6 mM glucose and 0.05% of gelatine (Merck KGaA, Darmstadt, Germany) is added. After a further incubation of 20 minutes at room temperature, the plates are inserted into the FLIPR for the Ca^2+ measurement.
(§5) Alternatively, the plates are washed with buffer A (15 mM HEPES, 80 mM NaCl, 5 mM KCl, 1.2 mM CaCl2, 0.7 mM MgSO4, 2 g/l glucose, 2.5 mM probenecid), buffer A is added and the plates are loaded with 2.5 μM Fluo-4 and 0.025% of Pluronic F127 (Sigma-Aldrich, Taufkirchen, Germany). Thereafter, the cells are washed 2× with buffer A and incubated for 30 minutes with buffer A, which additionally contains 0.05% of BSA and 0.05% of gelatine, at room temperature and thereafter inserted into the FLIPR for the Ca^2+ measurement.
(§6) The Ca^2+-dependent fluorescence is measured before and after addition of substances (λex=488 nm, λem=540 nm). Quantification is by measurement of the highest fluorescence intensity (FC, fluorescence counts) over time.
(§7) The FLIPR protocol consists of 2 additions of substance. Test substances (10 μM) are first pipetted on to the cells and the Ca^2+ inflow is compared with the control (hB1R: Lys-Des-Arg^9-bradykinin >=50 nM; rB1R: Des-Arg^9-bradykinin 10 μM). This gives the information in % activation based on the Ca^2+ signal after addition of Lys-Des-Arg^9-bradykinin (>=50 nM) or Des-Arg^9-bradykinin (10 μM).
(§8) After incubation for 10-20 minutes, Lys-Des-Arg^9-bradykinin (hB1R) or Des-Arg^9-bradykinin (rB1R) is applied in the concentration of the EC80 and the inflow of Ca^2+ is likewise determined.
(§9) Antagonists lead to a suppression of the Ca^2+ inflow. % inhibition compared with the maximum achievable inhibition is calculated.
(§10) To determine the IC50 value, the substances are added in various concentrations. Duplicate or triplicate determinations (n=2 or n=3) are carried out, and these are repeated in at least one further independent experiment (N>=2).
(§11) Preferably, the compounds have a B1R antagonistic action on the human receptor and/or on the rat receptor. The following data are given by way of example in the following table: (In this, “B1R Ant. h” represents “B1R antagonism human” and “B1R Ant. r” represents “B1R antagonism rat”)

[2] = target: T2, human bradykinin 1 receptor (B1R) (Homo sapiens, UniProt P46663); assay: Functional investigation on the human bradykinin 1 receptor (B1R), Ca2+ FLIPR assay in CHO K1 hB1R cells; type: cell-based
T2 construct: expressed in transfected cells; host or cells: CHO K1 cells
T2 sequence (P46663 1-353): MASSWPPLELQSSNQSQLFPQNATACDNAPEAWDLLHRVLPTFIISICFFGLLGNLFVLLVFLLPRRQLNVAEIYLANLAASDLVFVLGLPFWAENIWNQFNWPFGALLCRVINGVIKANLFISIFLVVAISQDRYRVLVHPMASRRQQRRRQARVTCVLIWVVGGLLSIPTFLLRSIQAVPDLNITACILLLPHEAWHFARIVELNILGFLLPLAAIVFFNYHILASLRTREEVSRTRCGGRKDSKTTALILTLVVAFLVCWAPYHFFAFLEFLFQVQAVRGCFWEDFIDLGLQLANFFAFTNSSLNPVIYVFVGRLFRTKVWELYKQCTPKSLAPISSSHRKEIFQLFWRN
Text: as §1, §2, §3, §4, §5, §6, §7, §8, §9, §10, §11

[3] = CHO-K1, B1R antagonism rat, test substance 10 μM, Ca2+ FLIPR, CHO K1 rB1R cells, read-out: B1R Ant. r [10 μM] % Inhibition
[4] = CHO-K1, B1R antagonism human, test substance 10 μM, Ca2+ FLIPR, CHO K1 hB1R cells, read-out: B1R Ant. h [10 μM] % Inhibition
[5] = CHO-K1, read-out: B1R Ant. r [10 μM] % Inhibition
[6] = CHO-K1, read-out: B1R Ant. h [10 μM] % Inhibition

| Structure (SMILES) | inhibition at 10 µM [1, 3] [%] | inhibition at 10 µM [2, 4] [%] | inhibition at 10 µM [1, 5] [%] | inhibition at 10 µM [2, 6] [%] |
| --- | --- | --- | --- | --- |
| O=C(COCCN(C1CC1)S(=O)(=O)c1c(Cl)cc(Cl)cc1Cl)NC1CCC(C(c2ccccc2)N2CCOCC2)CC1 (stereo not drawn) [Example 605, 2-{2-[cyclopropyl-(2,4,6-trichlorobenzenesulfonyl)-amino]-ethoxy}-N-[4-(morpholin-4-yl-phenylmethyl)-cyclohexyl]-acetamide] | 38 | 40 |  |  |
| CN(C)C(c1ccccc1)C1CCC(NC(=O)CNC(=O)c2nc(-c3cc(Cl)cc(Cl)c3)no2)CC1 (stereo not drawn) [Example 760, 3-(3,5-dichloro-phenyl)-[1,2,4]oxadiazole-5-carboxylic acid {[4-(dimethylamino-phenyl-methyl)-cyclohexylcarbamoyl]-methyl}-amide] | -4 | 66 |  |  |
| CN(C)C(CCc1ccccc1)C1CCC(NC(=O)CCNC(=O)c2nc(-c3ccc4c(c3)OCO4)no2)CC1 (stereo not drawn) [Example 792, 3-benzo[1,3]dioxol-5-yl-[1,2,4]oxadiazole-5-carboxylic acid {2-[4-(1-dimethylamino-3-phenyl-propyl)-cyclohexylcarbamoyl]-ethyl}-amide] |  |  | 2 | 9 |
| CN(C)C(c1ccccc1)C1CCC(NC(=O)CCNC(=O)c2nc(-c3ccc4c(c3)OCO4)no2)CC1 (stereo not drawn) [Example 768, 3-benzo[1,3]dioxol-5-yl-[1,2,4]oxadiazole-5-carboxylic acid {2-[4-(dimethylamino-phenyl-methyl)-cyclohexylcarbamoyl]-ethyl}-amide] | -2 | -3 |  |  |
| CN(C)C(CCc1ccccc1)C1CCC(NC(=O)CNC(=O)c2nc(-c3ccccn3)no2)CC1 (stereo not drawn) [Example 791, 3-pyridin-2-yl-[1,2,4]oxadiazole-5-carboxylic acid {[4-(1-dimethylamino-3-phenyl-propyl)-cyclohexylcarbamoyl]-methyl}-amide] |  |  | 16 | -3 |
| CN(C)C(c1ccccc1)C1CCC(NC(=O)CNC(=O)c2nc(CS(=O)(=O)c3ccccc3)no2)CC1 (stereo not drawn) [Example 769, 3-benzenesulfonylmethyl-[1,2,4]oxadiazole-5-carboxylic acid {[4-(dimethylamino-phenyl-methyl)-cyclohexylcarbamoyl]-methyl}-amide] | 39 | 15 |  |  |
| CN(C)C(CCc1ccccc1)C1CCC(NC(=O)CNC(=O)c2nc(-c3c(Cl)cccc3Cl)no2)CC1 (stereo not drawn) [Example 793, 3-(2,6-dichloro-phenyl)-[1,2,4]oxadiazole-5-carboxylic acid {[4-(1-dimethylamino-3-phenyl-propyl)-cyclohexylcarbamoyl]-methyl}-amide] | 6 | 104 |  |  |
| O=C(COC1CCN(S(=O)(=O)c2c(Cl)cc(Cl)cc2Cl)C1)NC1CCC(C(c2ccccc2)N2CCOCC2)CC1 (stereo not drawn) [Example 610, N-[4-(morpholin-4-ylphenylmethyl)-cyclohexyl]-2-[1-(2,4,6-trichlorobenzenesulfonyl)-pyrrolidin-3-yloxy]-acetamide] | 5 | 12 |  |  |
| CN(C)C(CCc1ccccc1)C1CCC(NC(=O)CCNC(=O)c2nc(-c3ccc(Cl)cc3Cl)no2)CC1 (stereo not drawn) [Example 788, 3-(2,4-dichloro-phenyl)-[1,2,4]oxadiazole-5-carboxylic acid {2-[4-(1-dimethylamino-3-phenyl-propyl)-cyclohexylcarbamoyl]-ethyl}-amide] | 11 | 90 |  |  |
| CN(Cc1ccccc1)C(c1ccccc1)C1CCC(NC(=O)COCCN(C2CC2)S(=O)(=O)c2c(Cl)cc(Cl)cc2Cl)CC1 (stereo not drawn) [Example 604, N-{4-[(benzylmethylamino)-phenylmethyl]-cyclohexyl}-2-{2-[cyclopropyl-(2,4,6-trichlorobenzenesulfonyl)-amino]-ethoxy}-acetamide] | 33 | -18 |  |  |
| CN(C)C(CCc1ccccc1)C1CCC(NC(=O)CNC(=O)c2nc(-c3ccc(C(F)(F)F)cc3)no2)CC1 (stereo not drawn) [Example 785, 3-(4-trifluoromethyl-phenyl)-[1,2,4]oxadiazole-5-carboxylic acid {[4-(1-dimethylamino-3-phenyl-propyl)-cyclohexylcarbamoyl]-methyl}-amide] | 32 | 76 |  |  |
| CN(C)C(c1ccccc1)C1CCC(NC(=O)CCNC(=O)c2nc(-c3cccs3)no2)CC1 (stereo not drawn) [Example 776, 3-thiophen-2-yl-[1,2,4]oxadiazole-5-carboxylic acid {2-[4-(dimethylamino-phenyl-methyl)-cyclohexylcarbamoyl]-ethyl}-amide] | 30 | -22 |  |  |
| COc1ccc(-c2noc(C(=O)NCCC(=O)NC3CCC(C(CCc4ccccc4)N(C)C)CC3)n2)cc1OC (stereo not drawn) [Example 789, 3-(3,4-dimethoxy-phenyl)-[1,2,4]oxadiazole-5-carboxylic acid {2-[4-(1-dimethylamino-3-phenyl-propyl)-cyclohexylcarbamoyl]-ethyl}-amide] | -6 | -11 |  |  |
| CN(C)C(c1ccccc1)C1CCC(NC(=O)CCNC(=O)c2nc(-c3ccc(Cl)cc3Cl)no2)CC1 (stereo not drawn) [Example 773, 3-(2,4-dichloro-phenyl)-[1,2,4]oxadiazole-5-carboxylic acid {2-[4-(dimethylamino-phenyl-methyl)-cyclohexylcarbamoyl]-ethyl}-amide] | 17 | 20 |  |  |
| CN(C)C(c1ccccc1)C1CCC(NC(=O)CNC(=O)c2nc(-c3c(Cl)cccc3Cl)no2)CC1 (stereo not drawn) [Example 770, 3-(2,6-dichloro-phenyl)-[1,2,4]oxadiazole-5-carboxylic acid {[4-(dimethylamino-phenyl-methyl)-cyclohexylcarbamoyl]-methyl}-amide] | 16 | 53 |  |  |

Reference: patent US8106055B2, “Substituted amide compounds” (Gruenenthal GmbH, priority 2007, dated 2012)
